From patent EP0614887B1, “Indole-sulfonamides as antitumor agents” (ELI LILLY AND COMPANY, priority 1993, dated 1994)

What was measured:
6C3HED lymphosarcoma = experiment: Antitumor activity in mice bearing allograft 6C3HED lymphosarcoma, oral dosing; format: in vivo, C3H mice; conditions: 6C3HED tumor, daily for 8 days; for Percent Inhibition: inhibition of tumor growth vs control; for Toxic/Total: mice which died / total animals in group
Source text: Another tumor model employed C3H mice bearing the widely used allograft 6C3HED lymphosarcoma, also known as the Gardner lymphosarcoma (GLS). The 6C3HED lymphosarcoma was obtained from the Division of Cancer Treatment, National Cancer Institute, Tumor Bank, maintained at E. G. and G. Mason Research (Worcester, Massachusetts).
(§1) First passage tumors were stored in liquid nitrogen, using standard techniques. The transplanted tumor was reestablished from the Tumor Bank every six months or as needed. The tumor was maintained by serial passage twice weekly in the host mice.
(§2) In the procedures utilized here, the tumor was removed from passage animals and minced into cubic fragments having 1 to 3 mm edges using sterile techniques. Tumor pieces were checked for sterility using both Antibiotic Medium 1 and Brain Heart Infusion (Difco, Detroit, Michigan). The xenograft tumor pieces were implanted into the recipient CD1 Nu/Nu mice subcutaneously in an axillary site by trochar. The allograft 6C3HED tumor pieces were implanted into the recipient C3H mice in an analogous fashion.
(§3) Drug therapy on the appropriate schedule was initiated seven days after tumor implantation for the mice bearing the xenograft tumors, one day after implantation for the mice bearing the 6C3HED lymphosarcoma. The compound being tested was mixed with 2.5% Emulphor EL620 from GAF Corporation (1:40 dilution in 0.9% saline). The total dosage volume for each administration was 0.5 ml. All animals were weighed at the beginning and end of administration of the subject compounds. Food and water were provided ad libitum.
(§4) Each control group and each dosage level of the treated groups consisted of 9 or 10 mice selected at random from the pool of implanted animals. The formulations were administered orally by gavage with the use of an 18-gauge needle. Compounds were dosed daily for 10 days for the studies using the human tumor xenografts and 8 days for the studies using the allograft.
(§5) The tumor was measured five days after treatment ended with two dimensional measurements (width and length) of the tumor taken using digital electronic calipers interfaced to a microcomputer. J.F. Worzalla, et al., Investigational New Drugs, 8:241-251 (1990). Tumor weights were calculated from these measurements using the following formula: Tumor weight (mg) =[…] [formula] At least one control group of an equal number of mice was treated with the same volume of 2.5% Emulphor only. The percent inhibition is determined by subtracting the ratio of the mean tumor size of the test group relative to the control group from one and multiplying the result by 100.
(§6) The results of several experiments in mice bearing the VRC5 human colon adenocarcinomas, and the 6C3HED lymphosarcoma when the Formula I compounds were administered orally are provided in Table I. In the table, Column 1 refers to the example number of the compound tested; Column 2 describes the particular human tumor xenograft or mouse allograft being studied; Column 3 gives the dosage level of the compound of Formula I in milligrams per kilogram of body weight; Column 4 describes the percent inhibition of tumor growth; and Column 5 tallies the number of mice which died during the course of the experiment relative to the total number of animals in the group.

[1] = test system: VRC5 human colon adenocarcinomas; experiment: Antitumor activity in mice bearing human colon xenograft VRC5, oral dosing; format: in vivo, CD1 Nu/Nu mice; conditions: VRC5 tumor, daily for 10 days; for Percent Inhibition: inhibition of tumor growth vs control; for Toxic/Total: mice which died / total animals in group
Source text: One of the tumor models used for showing the anti-neoplastic activity of the sulfonylureas of this invention was the human colon xenograft VRC5. J.A. Houghton and D.M. Taylor, British Journal of Cancer, 37:213-223 (1978). This tumor was obtained from St. Jude's Children's Research Hospital and has been widely used as a human tumor model.
as §1, §2, §3, §4, §5, §6

Compound | Percent Inhibition (6C3HED lymphosarcoma; 280 mg/kg orally by gavage) [%] | Toxic/Total (6C3HED lymphosarcoma; 280 mg/kg orally) | Percent Inhibition ([1]; 20 mg/kg orally by gavage) [%] | Toxic/Total ([1]; 20 mg/kg orally) | Percent Inhibition ([1]; 40 mg/kg orally by gavage) [%] | Toxic/Total ([1]; 40 mg/kg orally) | Percent Inhibition ([1]; 80 mg/kg orally by gavage) [%] | Toxic/Total ([1]; 80 mg/kg orally) | Percent Inhibition (6C3HED lymphosarcoma; 450 mg/kg orally by gavage) [%] | Toxic/Total (6C3HED lymphosarcoma; 450 mg/kg orally) | Percent Inhibition (6C3HED lymphosarcoma; 900 mg/kg orally by gavage) [%] | Toxic/Total (6C3HED lymphosarcoma; 900 mg/kg orally)
O=C(Nc1ccc(Cl)cc1)NS(=O)(=O)c1ccc2c(c1)CCN2 [Example 1, N-[[(4-chlorophenyl)amino]carbonyl]-2,3-dihydro-1H-indole-5-sulfonamide] | 44 | 0/9 |  |  |  |  |  |  |  |  |  | 
N-[[(3,4-dichlorophenyl)amino]carbonyl]-1-methyl-1H-indole-5-sulfonamide [Example 3] |  |  | 81 | 1/9 | 95 | 1/10 | 100 | 0/10 |  |  |  | 
O=C(Nc1ccc(Cl)c(Cl)c1)NS(=O)(=O)c1ccc2c(c1)CCN2 [Example 2, N-[[(3,4-dichlorophenyl)amino]carbonyl]-2,3-dihydro-1H-indole-5-sulfonamide] |  |  | 18 | 0/9 | 56 | 0/9 |  |  | 100 | 0/10 | 100 | 1/10
